Data taken from US5270148A, “Processing solution for silver halide color photographic materials and method for processing the materials with the processing solution” (priority 1991, dated 1993).
Where two headings read alike, the source gives them in different places. Each block holds one molecule with its values, some of them ahead of it.

Assays:
[1] = acid dissociation constant pKa of secondary amines of formula (II); details: in water at room temperature (about 25° C.)
[2] = Example 1: evaluation of image storage stability (magenta fading), stabilizing solution; details: for M Fading: 2 weeks 60° C. 20% RH
Description: In addition, the time for the stabilization step was changed by changing the length of the processing rack.
Thereafter, the sample was allowed to stand for 2 weeks under the conditions of 60° C. 20% RH and then the magenta density was measured again. Thus, magenta fading was evaluated by the reduced magenta density in the density stage that the magenta density after processing was 1.5. (M fading)

[3] = Example 6: image storage stability (magenta fading), image stabilizer in conditioning bath
Description: The same processing steps as in Example 4 were carried out except for changing the conditioning solution and the stabilizing solution as follows.
In this case, the time for the final stabilizing step was one minute and the time for the conditioning step was changed as shown in Table E in the processing.
By using the same method as in Example 1, the image storage stability of the processed film obtained and the vapor pressure of formaldehyde were evaluated.

[4] = Example 3: turbidity of concentrated stabilizing replenisher after passage of time; format: physicochemical; set-up: key to Turbidity after Passage of Time: E: Neither turbidity nor precipitation.; G: Turbidity occurred very slightly.; M: Slightly precipitation formed at the bottom of the vessel in addition to turbidity.; B: Precipitation layer of 5 mm or more formed on the bottom of the vessel; details: 40° C.
Description: One liter of the concentrated stabilizing replenisher shown below was prepared and filled in a 1.2 liter polyethylene bottle.
After allowing to stand the concentrated solution thus-prepared at 40° C. for 1 month or 6 months, the turbidity of the solution was visually observed.
In addition, the evaluation standards of the turbidity of the solution with the passage of time in Table C are as follows.

[5] = Example 4: image storage stability (magenta fading), color reversal material; details: 80° C. for 3 days
Description: Sample 401 prepared was slit in 35 mm width, and after perforated in the same format as films on the market and applying thereto a uniform light exposure, the sample was processed according to the following processing steps using an hanging type automatic processor.
The image storage stability test was carried out under the condition of 80° C. for 3 days. Also, in a bright place, the presence of unevenness of the sample was visually observed.

[6] = Example 2: fading of the magenta density at intermediate density portion; details: formaldehyde 4.0 mmol, 2 weeks 60° C., 70% RH
Description: The following processing steps were carried out using the following processing solutions and a cine type automatic processor.
According to a sample, fading of the magenta density at the intermediate density portion and the occurrence of yellow stain at the minimum density portion were observed.

[7] = oxidation reduction potential of aminopolycarboxylic acid ferric complex salts (bleaching agents); format: physicochemical; details: vs. NHE, pH = 6
Description: Then, practical examples of the aminopolycarboxylic acid ferric complex salt in this invention are illustrated below together with their oxidation reduction potentials, but the bleaching agents for use in this invention are not limited to these compounds.
The oxidation reduction potential of the bleaching agent is defined as the oxidation reduction potential obtained by the method described in Transactions of the Faraday Society, Vol. 55, (1959), pages 1312-1313.

[8] = water
human body = details: cited from earlier work
[9] = 5 mmol/l, stabilization time 10 sec.
[10] = 5 mmol/l, stabilization time 20 sec.
[11] = 5 mmol/l, stabilization time 60 sec.
[12] = 3 mmol/l, time of conditioning bath 40 sec.
[13] = 3 mmol/l, time of conditioning bath 90 sec.
[14] = 3 mmol/l, time of conditioning bath 120 sec.
[15] = 27 mmol/l, stabilization time 10 sec.
[16] = 27 mmol/l, stabilization time 20 sec.
[17] = 27 mmol/l, stabilization time 60 sec.
[18] = 13 mmol/l, time of conditioning bath 40 sec.
[19] = 13 mmol/l, time of conditioning bath 90 sec.
[20] = 13 mmol/l, time of conditioning bath 120 sec.

- pKa [1]: 9.6
Molecule: CNCCCCO [II-9]

Molecule: CCNC[Si](C)(C)C [II-13]
- pKa [1]: 11.1

Molecule: CNC [II-1]
- pKa [1]: 10.9

- Turbidity after Passage of Time ([4]; 0.5 mol, 1 month): G
- Turbidity after Passage of Time ([4]; 0.5 mol, 6 months): M
Molecule: c1ncn(CN2CCN(Cn3cncn3)CC2)n1 [Compound A-23]
- M Fading [2, 9]: 0.00
- M Fading [2, 10]: 0.00
- M Fading [2, 11]: 0.00
- M Fading [3, 12]: 0.00
- M Fading [3, 13]: 0.00
- M Fading [3, 14]: 0.00
- M Fading ([5]; 6 mmol/l): 0.00

Molecule: OCN1CCN(Cn2cncn2)CC1 [Compound A-45]
- M Fading [2, 9]: 0.04
- M Fading [2, 10]: 0.01
- M Fading [2, 11]: 0.01
- M Fading [3, 12]: 0.01
- M Fading [3, 13]: 0.01
- M Fading [3, 14]: 0.01

- Turbidity after Passage of Time ([4]; 0.5 mol, 1 month): G
- Turbidity after Passage of Time ([4]; 0.5 mol, 6 months): M
Molecule: OCCN(CCO)Cn1cccn1 [Compound A-1]
- M Fading ([5]; 6 mmol/l): 0.04

Molecule: c1cnn(CN2CCOCC2)c1 [Compound A-16]
- M Fading [2, 9]: 0.02
- M Fading [2, 10]: 0.00
- M Fading [2, 11]: 0.00
- M Fading ([5]; 6 mmol/l): 0.05

Molecule: C1COCCN1 [II-21]
- M-Fading ([6]; formula (II) 4 mmol): 0.04

- pKa [1]: 8.0
Molecule: CC(C)NCCC#N [II-11]

- pKa [1]: 9.9
Molecule: CNCCNC [II-15]

- pKa [1]: 10.6
Molecule: CCNCCCNCC [II-18]

- Oxidation Reduction Potential [7]: 240 mV
Molecule: Glycol Ether Diaminetetraacetic Acid Ferric Complex Salt [compound 6]

- pKa [1]: 9.8
Molecule: CNCCO [II-8]

- pKa [8]: 9.3
Molecule: C=CCNCC=C [II-3]

- pKa [1]: 8.3
Molecule: CCOC(=O)N1CCNCC1 [II-26]

- Oxidation Reduction Potential [7]: 80 mV
Molecule: Diethylenetriaminepentaacetic Acid Ferric Complex Salt [compound 9]

- pKa [1]: 9.7
Molecule: CC1CNC(C)CN1 (stereo not drawn) [II-25]

- pKa [1]: 8.8
Molecule: CNCC(=O)N(C)C [II-12]

- pKa [1]: 9.9
Molecule: CCN(CC)CCNC [II-14]

- Turbidity after Passage of Time ([4]; 0.5 mol, 1 month): G
- Turbidity after Passage of Time ([4]; 0.5 mol, 6 months): M
Molecule: c1cnn(CN2CCN(Cn3cccn3)CC2)c1 [Compound A-22]
- M Fading [2, 9]: 0.01
- M Fading [2, 10]: 0.00
- M Fading [2, 11]: 0.00
- M Fading [3, 12]: 0.01
- M Fading [3, 13]: 0.00
- M Fading [3, 14]: 0.00
- M Fading ([5]; 6 mmol/l): 0.00

- Oxidation Reduction Potential [7]: 250 mV
Molecule: 1,3-Propylenediaminetetraacetic Acid Ferric Complex Salt [compound 7]

Molecule: C1CNCCN1 [II-22]
- M-Fading ([6]; formula (II) 2 mmol): 0.03
- M-Fading ([6]; formula (II) 4 mmol): 0.02

- Oxidation Reduction Potential [7]: 230 mV
Molecule: 1,4-Butylenediaminetetraacetic Acid Ferric Salt [compound 4]

- pKa [1]: 10.9
Molecule: C1CCCNCC1 [II-23]

Molecule: C1N2CN3CN1CN(C2)C3 [Hexamethylenetetramine, reference compound]
- M Fading [2, 9]: 0.30
- M Fading [2, 10]: 0.31
- M Fading [2, 11]: 0.30
- M Fading [2, 15]: 0.28
- M Fading [2, 16]: 0.27
- M Fading [2, 17]: 0.28
- fading inhibition effect (in words) ([2]; Table A): the fading inhibition effect is insufficient even when a large amount of the compound is used
- M Fading [3, 12]: 0.25
- M Fading [3, 13]: 0.22
- M Fading [3, 14]: 0.10
- M Fading [3, 18]: 0.09
- M Fading [3, 19]: 0.05
- M Fading [3, 20]: 0.02
- M Fading ([5]; 6 mmol/l): 0.29
- M Fading ([5]; 100 mmol/l): 0.10

Molecule: C1NCC2CNCC1C2 [II-27]
- pKa [1]: 11.3

- pKa [1]: 10.9
Molecule: CCCCNC [Compound 11-5]

Molecule: OCCN1CCN(Cn2cccn2)CC1 [Compound A-32]
- M Fading [3, 12]: 0.01
- M Fading [3, 13]: 0.01
- M Fading [3, 14]: 0.01
- M Fading ([5]; 6 mmol/l): 0.00

- pKa [1]: 10.1
Molecule: CCNCCO [II-6]

- Turbidity after Passage of Time ([4]; 0.3 mol, 1 month): M
Molecule: O=C1N(CO)CCN1CO [Dimethylolethyleneurea, reference compound]
- Turbidity after Passage of Time ([4]; 0.3 mol, 6 months): B (Precipitation layer of 5 mm or more formed on the bottom of the vessel.)

Molecule: Cc1ccn(CN(CCO)CCO)n1 [Compound A-11]
- M Fading [2, 9]: 0.10
- M Fading [2, 10]: 0.05
- M Fading [2, 11]: 0.00
- M Fading [3, 12]: 0.01
- M Fading [3, 13]: 0.00
- M Fading [3, 14]: 0.00

Molecule: c1ncn(CN2CCOCC2)n1 [Compound A-26]
- M Fading [2, 9]: 0.03
- M Fading [2, 10]: 0.01
- M Fading [2, 11]: 0.01
- M Fading ([5]; 6 mmol/l): 0.00

- pKa [1]: 9.2
Molecule: OCCNCCNCCO [II-17]

- pKa [1]: 10.2
Molecule: CCNCCNCC [II-16]

- pKa [1]: 8.3
Molecule: CCCCNCCC#N [II-10]

Molecule: c1cnn(CN2CCCCC2)c1 [Compound A-17]
- M Fading [2, 9]: 0.02
- M Fading [2, 10]: 0.01
- M Fading [2, 11]: 0.00

- Oxidation Reduction Potential [7]: 200 mV
Molecule: Methyliminodiacetic Acid Ferric Complex Salt [compound 2]

- Oxidation Reduction Potential [7]: 210 mV
Molecule: Iminodiacetic Acid Ferric Complex Salt [compound 3]

Molecule: c1nc[nH]n1 [Compound I-4]
- M-Fading ([6]; formula (I) 4 mmol): 0.16
- M-Fading ([6]; formula (I) 16 mmol): 0.17

- Turbidity after Passage of Time ([4]; 0.5 mol, 1 month): G
- Turbidity after Passage of Time ([4]; 0.5 mol, 6 months): M
Molecule: OCCN(CCO)Cn1cncn1 [Compound A-12]

Molecule: C=O [Formaldehyde, reference compound]
- allowable concentration in a working environment (human body; Japan Association of Industrial Health): ≤ 0.5 ppm
- harm on inhalation (in words) (human body; human body): harmful for the human body
- M Fading [2, 9]: 0.20
- M Fading [2, 10]: 0.15
- M Fading [2, 11]: 0.08
- M Fading [2, 15]: 0.03
- M Fading [2, 16]: 0.00
- M Fading [2, 17]: 0.00
- M Fading [3, 12]: 0.11
- M Fading [3, 13]: 0.00
- M Fading [3, 14]: 0.00
- M Fading [3, 18]: 0.03
- M Fading [3, 19]: 0.00
- M Fading [3, 20]: 0.00
- Turbidity after Passage of Time ([4]; 2.0 mol, 1 month): M
- Turbidity after Passage of Time ([4]; 2.0 mol, 6 months): M
- turbidity / precipitates on storage (in words) ([4]; concentrated stabilizing replenisher, 1 month or 6 months): white floatings precipitates accumulated on the bottom of the vessel
- M-Fading ([6]; no formula (I) or (II) additive): 0.15

- pKa [1]: 10.8
Molecule: CC1CCNCC1 [II-24]

- Oxidation Reduction Potential [7]: 180 mV
Molecule: N-(2-Acetamido)iminodiacetic Acid Ferric Complex Salt [compound 1]
